From PubChem BioAssay AID1963976 (Molecular Pharmacology Branch, DTP, NCI, 2024)

Test system: 435261-313-R-J1-PDC tumor spheroid viability
Assay: Anticancer human tumor 435261-313-R-J1-PDC patient-derived colon adenocarcinoma cell line growth inhibition [PI3K]
Details: spheroids with HUVEC and MSC; for IC50: curve of first compound; for viability, T/C: stronger effect = lower value
Source text: Combinatorial screen of targeted agents with the PI3K inhibitors inavolisib, alpelisib, duvelisib, and copanlisib in multi-cell type tumor spheroids
A high-throughput screen of multi-cell type tumor spheroids was designed to identify active combinations of targeted small molecules and PI3K pathway inhibitors. Complex spheroids include a stromal component modeled by human endothelial cells (HUVEC) and fibroblasts modeled by human mesenchymal stem cells (MSCs). The concentration ranges selected for each drug and investigational agent were based upon clinically achievable concentrations if the clinical Cmax of the agent was known.
Compounds. The drugs and investigational agents: inavolisib (NSC800729), alpelisib (NSC765974), duvelisib (NSC772469), copanlisib (NSC816437), ipatasertib (NSC767898), afuresertib (NSC778305), talazoparib (NSC767125), sapanisertib (NSC764658), selumetinib (NSC741078), tovorafenib (DAY101, NSC766906), vemurafenib (NSC761431), ravoxertinib (NSC781343), sotorasib (NSC818433), MRTX1133 (NSC 836407), abemaciclib (NSC 768073), palbociclib (NSC758247), venetoclax (NSC 766270), SY5609 (NSC837396), enzalutamide (NSC755605), and darolutamide (NSC825331), were obtained from the National Cancer Institute (NCI) Developmental Therapeutics Program Chemical Repository. The FDA-approved anticancer drug set is available from the NCI Developmental Therapeutics Program. […] The stock solutions were prepared in dimethyl sulfoxide (DMSO, Sigma-Aldrich, St. Louis, MO, cat. D2650) at 800-fold the tested concentration and stored at -70 degrees C prior to their use. All drugs and investigational agents were tested over a range starting from a high concentration at or near the clinical Cmax and decreasing in half-log increments. If the clinical Cmax for an agent had not been determined, the highest concentration tested was 10 microM.
Cell Culture. All cells were maintained in an incubator at 37 degrees C and 5% CO2 with 95% humidity. The PDC lines were cultured according to standard operating procedures established by the NCI PDMR (https://pdmr.cancer.gov/sops/default.htm). All PDCs were thawed and cultured in Matrigel-coated flasks prepared with a working solution of 1X Ham's F-12 nutrient mix, without supplementation (Invitrogen, Waltham, MA, cat. 11765054), 100 U/mL penicillin-streptomycin (Invitrogen, cat. 15140122), and 2.5% Matrigel (Corning Inc., Corning, NY, cat. 354248) for the first three passages. The 354836-022-R-J1-PDC, 475296-252-R-J1-PDC, and 997726-040-R-J2-PDC lines were cultured in 6A media, which includes advanced DMEM/F-12 (Thermo Fisher Scientific, cat. 12634028), 10 mM HEPES (Thermo Fisher Scientific, cat. 15630080), 1X GlutaMAX supplement (Thermo Fisher Scientific, cat. 35050061), 0.1 mg/mL primocin (InvivoGen, San Diego, CA, cat. ant-pm-2), 10% defined fetal bovine serum, heat inactivated (HyClone Laboratories Inc., Logan, UT, cat. SH30070.03HI), 50% L-WRN conditioned media (ATCC, cat. CRL-3276), 1.25 mM N-Acetyl-L-cysteine (Sigma-Aldrich, cat. A9165), 10 mM nicotinamide (Sigma-Aldrich, cat. N0636), 1X B-27 supplement (Thermo Fisher Scientific, cat. 17504044), 1X N-2 supplement (Thermo Fisher Scientific, cat. 17502048), and 10 microM Y-27632 dihydrochloride (Tocris Bioscience, Bristol, United Kingdom, cat. 1254). The 624824-186-R-J2-PDC line was cultured in 6C/Colon 1B media, which includes all 6A media components plus 50 ng/mL human EGF recombinant protein (Thermo Fisher Scientific, cat. PHG0311). […]

[1] = second compound 0.00316 µM, first compound 0.0316 µM
[2] = second compound 0.00316 µM, first compound 0.1 µM
[3] = second compound 0.00316 µM, first compound 0.316 µM
[4] = second compound 0.00316 µM, first compound 1 µM
[5] = second compound 0.00316 µM, first compound 3.16 µM
[6] = second compound 0.00316 µM, first compound 10 µM
[7] = second compound 0.01 µM, first compound 0.0316 µM
[8] = second compound 0.01 µM, first compound 0.1 µM
[9] = second compound 0.01 µM, first compound 0.316 µM
[10] = second compound 0.01 µM, first compound 1 µM
[11] = second compound 0.01 µM, first compound 3.16 µM
[12] = second compound 0.01 µM, first compound 10 µM
[13] = second compound 0.0316 µM, first compound 0.0316 µM
[14] = second compound 0.0316 µM, first compound 0.1 µM
[15] = second compound 0.0316 µM, first compound 0.316 µM
[16] = second compound 0.0316 µM, first compound 1 µM
[17] = second compound 0.0316 µM, first compound 3.16 µM
[18] = second compound 0.0316 µM, first compound 10 µM
[19] = second compound 0.1 µM, first compound 0.0316 µM
[20] = second compound 0.1 µM, first compound 0.1 µM
[21] = second compound 0.1 µM, first compound 0.316 µM
[22] = second compound 0.1 µM, first compound 1 µM
[23] = second compound 0.1 µM, first compound 3.16 µM
[24] = second compound 0.1 µM, first compound 10 µM
[25] = second compound 0.316 µM, first compound 0.0316 µM
[26] = second compound 0.316 µM, first compound 0.1 µM
[27] = second compound 0.316 µM, first compound 0.316 µM
[28] = second compound 0.316 µM, first compound 1 µM
[29] = second compound 0.316 µM, first compound 3.16 µM
[30] = second compound 0.316 µM, first compound 10 µM
[31] = second compound 1 µM, first compound 0.0316 µM
[32] = second compound 1 µM, first compound 0.1 µM
[33] = second compound 1 µM, first compound 0.316 µM
[34] = second compound 1 µM, first compound 1 µM
[35] = second compound 1 µM, first compound 3.16 µM
[36] = second compound 1 µM, first compound 10 µM

CC1(C)CCC(CN2CCN(c3ccc(C(=O)NS(=O)(=O)c4ccc(NCC5CCOCC5)c([N+](=O)[O-])c4)c(Oc4cnc5[nH]ccc5c4)c3)CC2)=C(c2ccc(Cl)cc2)C1 + CC(Nc1ccc2c(c1)OCCn1cc(N3C(=O)OCC3C(F)F)nc1-2)C(N)=O showed an IC50 (second compound 0.00316 µM) of 5.55 µM, an IC50 (second compound 0.01 µM) of 6.17 µM and an IC50 (second compound 0.0316 µM) of 4.21 µM. It also gave an IC50 (second compound 0.1 µM) of less than 0.0316 µM, an IC50 (second compound 0.316 µM) of less than 0.0316 µM and an IC50 (second compound 1 µM) of less than 0.0316 µM. It also gave a viability, T/C [1] of 69.6%, a viability, T/C [2] of 90.5% and a viability, T/C [3] of 79.2%. It also gave a viability, T/C [4] of 127%, a viability, T/C [5] of 81.3% and a viability, T/C [6] of 17.4%. The viability, T/C [7] was 81.3%, the viability, T/C [8] was 77.5% and the viability, T/C [9] was 79%. It also gave a viability, T/C [10] of 90.8%, a viability, T/C [11] of 95.9% and a viability, T/C [12] of 24.8%. It also gave a viability, T/C [13] of 58.7%, a viability, T/C [14] of 59.2% and a viability, T/C [15] of 55.1%. It also gave a viability, T/C [16] of 65.8%, a viability, T/C [17] of 74.4% and a viability, T/C [18] of 11.7%. For the same molecule, the viability, T/C [19] was 34.1%, the viability, T/C [20] was 39.8% and the viability, T/C [21] was 51.5%. It also gave a viability, T/C [22] of 35.1%, a viability, T/C [23] of 33.6% and a viability, T/C [24] of 10.8%. It also gave a viability, T/C [25] of 23.1%, a viability, T/C [26] of 23.3% and a viability, T/C [27] of 22.3%. The viability, T/C [28] was 24%, the viability, T/C [29] was 26.2% and the viability, T/C [30] was 8.22%. The viability, T/C [31] was 16.4%, the viability, T/C [32] was 20% and the viability, T/C [33] was 14.9%. For the same molecule, the viability, T/C [34] was 18.3%, the viability, T/C [35] was 18.8% and the viability, T/C [36] was 7.07%.
Work on C[C@@H](NC(=O)c1ncnc(N)c1Cl)c1ncc(C(=O)Nc2cc(C(F)(F)F)c(Cl)cn2)s1 + CC(Nc1ccc2c(c1)OCCn1cc(N3C(=O)OCC3C(F)F)nc1-2)C(N)=O yielded an IC50 (second compound 0.00316 µM) greater than 10 µM, an IC50 (second compound 0.01 µM) greater than 10 µM and an IC50 (second compound 0.0316 µM) greater than 10 µM. For the same molecule, the IC50 (second compound 0.1 µM) was 4.55 µM, the IC50 (second compound 0.316 µM) was less than 0.0316 µM and the IC50 (second compound 1 µM) was less than 0.0316 µM. The viability, T/C [1] was 168%, the viability, T/C [2] was 171% and the viability, T/C [3] was 154%. It also gave a viability, T/C [4] of 148%, a viability, T/C [5] of 158% and a viability, T/C [6] of 116%. For the same molecule, the viability, T/C [7] was 136%, the viability, T/C [8] was 152% and the viability, T/C [9] was 191%. For the same molecule, the viability, T/C [10] was 135%, the viability, T/C [11] was 140% and the viability, T/C [12] was 108%. It also gave a viability, T/C [13] of 99.4%, a viability, T/C [14] of 126% and a viability, T/C [15] of 155%. The viability, T/C [16] was 158%, the viability, T/C [17] was 112% and the viability, T/C [18] was 85.4%. The viability, T/C [19] was 74.7%, the viability, T/C [20] was 72% and the viability, T/C [21] was 115%. For the same molecule, the viability, T/C [22] was 77.2%, the viability, T/C [23] was 58.6% and the viability, T/C [24] was 32.5%. For the same molecule, the viability, T/C [25] was 51.3%, the viability, T/C [26] was 47.6% and the viability, T/C [27] was 36.9%. It also gave a viability, T/C [28] of 39.3%, a viability, T/C [29] of 35.8% and a viability, T/C [30] of 9.29%. It also gave a viability, T/C [31] of 29.2%, a viability, T/C [32] of 33.5% and a viability, T/C [33] of 21.3%. It also gave a viability, T/C [34] of 27%, a viability, T/C [35] of 23% and a viability, T/C [36] of 6.01%.
